Measurements reported in paper PMC10700596 (Nature Communications, 2023).
Where “and” joins values, the source holds several entries; their conditions need not be identical. Identical values can stand only once. Entries after “also recorded” stand apart in the source; their conditions may differ.

Tests used:
JNK3 = JNK3 (Homo sapiens, UniProt P53779); experiment: biochemical; assay type: binding; conditions: 10000 nM; read-out: Percent Control
JNK2 = JNK2 (Homo sapiens, UniProt P45984); experiment: biochemical; assay type: binding; conditions: 10000 nM; read-out: Percent Control
ADCK3 = ADCK3 (Homo sapiens, UniProt Q8NI60); experiment: biochemical; assay type: binding; conditions: 10000 nM; read-out: Percent Control
Chain of ADCK3 (Q8NI60 163-647): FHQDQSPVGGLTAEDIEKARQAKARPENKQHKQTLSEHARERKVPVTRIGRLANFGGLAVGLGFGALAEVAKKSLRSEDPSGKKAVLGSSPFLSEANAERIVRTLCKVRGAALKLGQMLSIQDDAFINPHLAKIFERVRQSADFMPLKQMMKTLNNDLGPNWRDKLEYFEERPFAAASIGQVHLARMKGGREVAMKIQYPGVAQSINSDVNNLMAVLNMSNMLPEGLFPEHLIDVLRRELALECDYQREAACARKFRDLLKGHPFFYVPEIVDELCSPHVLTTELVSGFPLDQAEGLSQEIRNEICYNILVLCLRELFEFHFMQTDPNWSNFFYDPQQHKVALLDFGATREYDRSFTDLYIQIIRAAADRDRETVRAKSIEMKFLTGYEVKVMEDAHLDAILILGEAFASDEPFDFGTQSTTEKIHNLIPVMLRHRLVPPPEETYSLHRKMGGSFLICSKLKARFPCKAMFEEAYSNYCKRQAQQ
Description: (§1) . […] This panel includes several adverse drug reaction receptors such as the serotonin receptor 5HT2b, M1 and M2 muscarinic receptors and adrenergic receptors. […]. page 7:
(§2) Supplementary Figure 7: Non-GPCR off-target screening for 74. a)-e) Dose-response curves of 74 at […]
(§3) proliferator-activated receptor gamma (PPARγ, Eurofins item G124). Data in a)-e) and g)-i) represent two technical replicates. Source data are provided as a Source Data file.
(§4) (1 picture or pasted object on this page, not shown here)

ROCK2 = ROCK2 (Homo sapiens, UniProt O75116); experiment: biochemical; assay type: binding; conditions: 10000 nM; read-out: Percent Control
Description: as §1, §2, §3, §4

JNK1 = JNK1 (Homo sapiens, UniProt P45983); experiment: biochemical; assay type: binding; conditions: 10000 nM; read-out: Percent Control
Chain of JNK1 (P45983 whole entry): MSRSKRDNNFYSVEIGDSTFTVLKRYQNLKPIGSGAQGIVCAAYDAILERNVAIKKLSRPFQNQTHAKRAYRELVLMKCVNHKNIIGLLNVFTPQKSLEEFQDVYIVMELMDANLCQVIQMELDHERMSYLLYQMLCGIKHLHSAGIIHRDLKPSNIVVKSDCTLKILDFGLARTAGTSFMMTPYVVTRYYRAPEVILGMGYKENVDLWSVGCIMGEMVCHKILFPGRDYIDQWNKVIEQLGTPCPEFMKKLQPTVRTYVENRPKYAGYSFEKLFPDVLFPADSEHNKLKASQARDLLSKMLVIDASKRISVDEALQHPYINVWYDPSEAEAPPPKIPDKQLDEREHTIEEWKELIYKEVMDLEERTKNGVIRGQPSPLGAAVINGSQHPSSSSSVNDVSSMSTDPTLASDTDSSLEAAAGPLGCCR
Description: as §1, §2, §3, §4

PIM1 = PIM1 (Homo sapiens, UniProt P11309); experiment: biochemical; assay type: binding; conditions: 10000 nM; read-out: Percent Control
Description: as §1, §2, §3, §4

[1] = biological target: ABL1(E255K)-phosphorylated (Homo sapiens, UniProt P00519, E255K); experiment: biochemical; assay type: binding; conditions: 10000 nM; read-out: Percent Control
Description: as §1, §2, §3, §4

IKK-alpha = IKK-alpha (Homo sapiens, UniProt O15111); experiment: biochemical; assay type: binding; conditions: 10000 nM; read-out: Percent Control
Description: as §1, §2, §3, §4

ZAP70 = ZAP70 (Homo sapiens, UniProt P43403); experiment: biochemical; assay type: binding; conditions: 10000 nM; read-out: Percent Control
Description: as §1, §2, §3, §4

EGFR = EGFR (Homo sapiens, UniProt P00533); experiment: biochemical; assay type: binding; conditions: 10000 nM; read-out: Percent Control
Description: as §1, §2, §3, §4

DCAMKL1 = DCAMKL1 (Homo sapiens, UniProt O15075); experiment: biochemical; assay type: binding; conditions: 10000 nM; read-out: Percent Control
Chain of DCAMKL1 (O15075 whole entry): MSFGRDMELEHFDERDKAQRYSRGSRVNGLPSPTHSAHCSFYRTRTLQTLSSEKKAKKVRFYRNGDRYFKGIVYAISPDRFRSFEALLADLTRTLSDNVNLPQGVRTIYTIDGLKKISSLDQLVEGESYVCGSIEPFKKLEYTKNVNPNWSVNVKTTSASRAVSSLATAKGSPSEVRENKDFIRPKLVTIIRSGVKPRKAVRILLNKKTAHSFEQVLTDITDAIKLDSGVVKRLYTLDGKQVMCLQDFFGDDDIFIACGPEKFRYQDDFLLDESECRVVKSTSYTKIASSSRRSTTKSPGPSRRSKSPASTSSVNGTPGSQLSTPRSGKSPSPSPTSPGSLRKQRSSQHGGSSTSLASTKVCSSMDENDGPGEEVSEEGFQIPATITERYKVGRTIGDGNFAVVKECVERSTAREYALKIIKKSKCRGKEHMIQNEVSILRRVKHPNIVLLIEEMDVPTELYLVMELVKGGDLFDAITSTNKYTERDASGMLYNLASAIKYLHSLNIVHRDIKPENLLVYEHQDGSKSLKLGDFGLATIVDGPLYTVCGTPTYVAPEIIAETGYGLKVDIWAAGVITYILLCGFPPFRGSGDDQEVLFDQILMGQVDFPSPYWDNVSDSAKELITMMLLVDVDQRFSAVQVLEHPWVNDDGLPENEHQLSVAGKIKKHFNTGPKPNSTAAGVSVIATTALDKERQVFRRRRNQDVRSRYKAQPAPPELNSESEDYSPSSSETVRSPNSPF
Description: as §1, §2, §3, §4

PRKCE = PRKCE (Homo sapiens, UniProt Q02156); experiment: biochemical; assay type: binding; conditions: 10000 nM; read-out: Percent Control
Description: as §1, §2, §3, §4

FAK = FAK (Homo sapiens, UniProt Q05397); experiment: biochemical; assay type: binding; conditions: 10000 nM; read-out: Percent Control
Description: as §1, §2, §3, §4

TRKA = TRKA (Homo sapiens, UniProt P04629); experiment: biochemical; assay type: binding; conditions: 10000 nM; read-out: Percent Control
Description: as §1, §2, §3, §4

p38-alpha = p38-alpha (Homo sapiens, UniProt Q16539); experiment: biochemical; assay type: binding; conditions: 10000 nM; read-out: Percent Control
Description: as §1, §2, §3, §4

INSR = INSR (Homo sapiens, UniProt P06213); experiment: biochemical; assay type: binding; conditions: 10000 nM; read-out: Percent Control
Description: as §1, §2, §3, §4

CDK2 = CDK2 (Homo sapiens, UniProt P24941); experiment: biochemical; assay type: binding; conditions: 10000 nM; read-out: Percent Control
Description: as §1, §2, §3, §4

EGFR(L858R) = EGFR(L858R) (Homo sapiens, UniProt P00533, L858R); experiment: biochemical; assay type: binding; conditions: 10000 nM; read-out: Percent Control
Description: as §1, §2, §3, §4

CDK11 = CDK11 (Homo sapiens, UniProt Q9BWU1); experiment: biochemical; assay type: binding; conditions: 10000 nM; read-out: Percent Control
Description: as §1, §2, §3, §4

GSK3B = GSK3B (Homo sapiens, UniProt P49841); experiment: biochemical; assay type: binding; conditions: 10000 nM; read-out: Percent Control
Description: as §1, §2, §3, §4

MET = MET (Homo sapiens, UniProt P08581); experiment: biochemical; assay type: binding; conditions: 10000 nM; read-out: Percent Control
Chain of MET (P08581 25-1390): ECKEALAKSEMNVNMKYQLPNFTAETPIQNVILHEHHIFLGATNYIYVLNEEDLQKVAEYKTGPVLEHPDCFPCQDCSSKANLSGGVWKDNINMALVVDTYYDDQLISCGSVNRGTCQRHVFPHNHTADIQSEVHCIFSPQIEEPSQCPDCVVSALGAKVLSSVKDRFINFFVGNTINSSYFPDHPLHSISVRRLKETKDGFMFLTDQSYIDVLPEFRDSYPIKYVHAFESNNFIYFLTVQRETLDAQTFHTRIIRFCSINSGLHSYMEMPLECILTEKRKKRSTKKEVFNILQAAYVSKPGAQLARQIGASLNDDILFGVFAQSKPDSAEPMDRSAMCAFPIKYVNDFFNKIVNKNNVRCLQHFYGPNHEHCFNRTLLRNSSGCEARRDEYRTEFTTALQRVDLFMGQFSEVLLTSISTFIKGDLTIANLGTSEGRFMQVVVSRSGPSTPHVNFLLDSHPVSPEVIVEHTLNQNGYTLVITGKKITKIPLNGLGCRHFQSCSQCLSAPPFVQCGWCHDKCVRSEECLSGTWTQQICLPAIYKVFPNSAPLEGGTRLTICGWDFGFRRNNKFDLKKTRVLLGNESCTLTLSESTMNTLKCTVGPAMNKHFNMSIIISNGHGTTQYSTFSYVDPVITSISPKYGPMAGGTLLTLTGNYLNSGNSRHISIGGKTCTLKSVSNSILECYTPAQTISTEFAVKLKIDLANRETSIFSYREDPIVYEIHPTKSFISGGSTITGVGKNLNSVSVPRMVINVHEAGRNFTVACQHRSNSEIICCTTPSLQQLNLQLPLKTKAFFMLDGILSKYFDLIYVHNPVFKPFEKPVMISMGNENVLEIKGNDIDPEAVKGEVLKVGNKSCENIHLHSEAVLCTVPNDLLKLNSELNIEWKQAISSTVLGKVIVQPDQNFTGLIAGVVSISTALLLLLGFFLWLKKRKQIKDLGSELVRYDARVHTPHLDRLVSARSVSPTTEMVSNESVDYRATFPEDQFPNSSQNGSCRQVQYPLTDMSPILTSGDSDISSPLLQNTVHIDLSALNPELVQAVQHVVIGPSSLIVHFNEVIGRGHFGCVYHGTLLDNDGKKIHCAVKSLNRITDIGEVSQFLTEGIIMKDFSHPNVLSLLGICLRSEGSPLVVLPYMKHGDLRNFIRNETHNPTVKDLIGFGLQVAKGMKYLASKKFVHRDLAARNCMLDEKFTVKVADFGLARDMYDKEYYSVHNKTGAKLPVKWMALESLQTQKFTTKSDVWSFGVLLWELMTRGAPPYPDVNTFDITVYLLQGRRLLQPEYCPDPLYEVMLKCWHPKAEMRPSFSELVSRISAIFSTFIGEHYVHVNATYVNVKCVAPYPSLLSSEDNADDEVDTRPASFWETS
Description: as §1, §2, §3, §4

PIK3CA = PIK3CA (Homo sapiens, UniProt P42336); experiment: biochemical; assay type: binding; conditions: 10000 nM; read-out: Percent Control
Description: as §1, §2, §3, §4

CDK7 = CDK7 (Homo sapiens, UniProt P50613); experiment: biochemical; assay type: binding; conditions: 10000 nM; read-out: Percent Control
Description: as §1, §2, §3, §4

AKT1 = AKT1 (Homo sapiens, UniProt P31749); experiment: biochemical; assay type: binding; conditions: 10000 nM; read-out: Percent Control
Description: as §1, §2, §3, §4

ERK1 = ERK1 (Homo sapiens, UniProt P27361); experiment: biochemical; assay type: binding; conditions: 10000 nM; read-out: Percent Control
Chain of ERK1 (P27361 whole entry): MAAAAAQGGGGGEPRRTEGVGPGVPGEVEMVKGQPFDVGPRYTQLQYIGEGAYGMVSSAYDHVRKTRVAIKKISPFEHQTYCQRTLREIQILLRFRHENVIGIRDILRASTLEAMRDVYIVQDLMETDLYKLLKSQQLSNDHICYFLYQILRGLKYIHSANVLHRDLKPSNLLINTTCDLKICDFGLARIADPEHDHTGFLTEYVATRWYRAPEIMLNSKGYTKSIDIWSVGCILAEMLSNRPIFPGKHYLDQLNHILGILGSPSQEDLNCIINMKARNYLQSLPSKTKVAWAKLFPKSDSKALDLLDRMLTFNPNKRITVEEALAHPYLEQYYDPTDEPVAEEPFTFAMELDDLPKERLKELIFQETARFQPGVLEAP
Description: as §1, §2, §3, §4

FGFR2 = FGFR2 (Homo sapiens, UniProt P21802); experiment: biochemical; assay type: binding; conditions: 10000 nM; read-out: Percent Control
Description: as §1, §2, §3, §4

YANK3 = YANK3 (Homo sapiens, UniProt Q86UX6); experiment: biochemical; assay type: binding; conditions: 10000 nM; read-out: Percent Control
Chain of YANK3 (Q86UX6 whole entry): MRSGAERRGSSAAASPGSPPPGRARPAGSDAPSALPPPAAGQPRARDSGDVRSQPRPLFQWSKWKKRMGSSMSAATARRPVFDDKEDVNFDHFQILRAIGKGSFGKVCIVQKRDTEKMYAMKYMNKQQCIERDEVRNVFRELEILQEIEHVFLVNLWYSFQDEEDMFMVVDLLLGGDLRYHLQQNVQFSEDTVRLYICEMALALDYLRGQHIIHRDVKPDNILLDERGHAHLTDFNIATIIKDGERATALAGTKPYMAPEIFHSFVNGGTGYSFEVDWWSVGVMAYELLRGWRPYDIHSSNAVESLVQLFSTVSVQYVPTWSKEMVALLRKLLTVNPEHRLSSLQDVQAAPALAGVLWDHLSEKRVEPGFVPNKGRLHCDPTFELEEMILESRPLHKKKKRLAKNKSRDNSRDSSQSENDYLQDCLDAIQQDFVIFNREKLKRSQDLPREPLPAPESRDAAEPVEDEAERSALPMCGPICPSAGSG
Description: as §1, §2, §3, §4

SRC = SRC (Homo sapiens, UniProt P12931); experiment: biochemical; assay type: binding; conditions: 10000 nM; read-out: Percent Control
Description: as §1, §2, §3, §4

BTK = BTK (Homo sapiens, UniProt Q06187); experiment: biochemical; assay type: binding; conditions: 10000 nM; read-out: Percent Control
Description: as §1, §2, §3, §4

PDPK1 = PDPK1 (Homo sapiens, UniProt O15530); experiment: biochemical; assay type: binding; conditions: 10000 nM; read-out: Percent Control
Description: as §1, §2, §3, §4

DYRK1B = DYRK1B (Homo sapiens, UniProt Q9Y463); experiment: biochemical; assay type: binding; conditions: 10000 nM; read-out: Percent Control
Description: as §1, §2, §3, §4

BRAF = BRAF (Homo sapiens, UniProt P15056); experiment: biochemical; assay type: binding; conditions: 10000 nM; read-out: Percent Control
Description: as §1, §2, §3, §4

AKT2 = AKT2 (Homo sapiens, UniProt P31751); experiment: biochemical; assay type: binding; conditions: 10000 nM; read-out: Percent Control
Description: as §1, §2, §3, §4

PIK3CG = PIK3CG (Homo sapiens, UniProt P48736); experiment: biochemical; assay type: binding; conditions: 10000 nM; read-out: Percent Control
Description: as §1, §2, §3, §4

SRPK3 = SRPK3 (Homo sapiens, UniProt Q9UPE1); experiment: biochemical; assay type: binding; conditions: 10000 nM; read-out: Percent Control
Chain of SRPK3 (Q9UPE1 whole entry): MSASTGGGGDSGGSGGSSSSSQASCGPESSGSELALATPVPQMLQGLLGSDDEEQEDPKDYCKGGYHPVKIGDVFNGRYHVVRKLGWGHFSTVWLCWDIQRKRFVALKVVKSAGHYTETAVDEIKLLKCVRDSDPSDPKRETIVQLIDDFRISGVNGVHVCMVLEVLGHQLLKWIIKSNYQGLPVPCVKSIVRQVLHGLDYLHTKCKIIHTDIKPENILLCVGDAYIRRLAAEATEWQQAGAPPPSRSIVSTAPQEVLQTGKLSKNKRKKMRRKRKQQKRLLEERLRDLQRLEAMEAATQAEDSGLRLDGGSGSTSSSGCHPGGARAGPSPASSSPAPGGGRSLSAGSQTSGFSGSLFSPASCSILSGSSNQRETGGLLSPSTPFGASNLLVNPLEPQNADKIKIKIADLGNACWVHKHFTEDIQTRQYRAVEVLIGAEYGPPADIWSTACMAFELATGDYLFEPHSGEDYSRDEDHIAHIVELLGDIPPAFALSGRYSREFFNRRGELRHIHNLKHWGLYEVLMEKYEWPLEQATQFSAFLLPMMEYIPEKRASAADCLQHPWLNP
Description: as §1, §2, §3, §4

CHEK1 = CHEK1 (Homo sapiens, UniProt O14757); experiment: biochemical; assay type: binding; conditions: 10000 nM; read-out: Percent Control
Description: as §1, §2, §3, §4

ACVR1B = ACVR1B (Homo sapiens, UniProt P36896); experiment: biochemical; assay type: binding; conditions: 10000 nM; read-out: Percent Control
Description: as §1, §2, §3, §4

COX-2 = biological target: T1, COX-2 (Homo sapiens, UniProt P35354); experiment: COX-2 inhibition (Eurofins item 4186); assay type: biochemical
T1 construct: purchased Eurofins item 4186
T1 sequence (P35354 18-604): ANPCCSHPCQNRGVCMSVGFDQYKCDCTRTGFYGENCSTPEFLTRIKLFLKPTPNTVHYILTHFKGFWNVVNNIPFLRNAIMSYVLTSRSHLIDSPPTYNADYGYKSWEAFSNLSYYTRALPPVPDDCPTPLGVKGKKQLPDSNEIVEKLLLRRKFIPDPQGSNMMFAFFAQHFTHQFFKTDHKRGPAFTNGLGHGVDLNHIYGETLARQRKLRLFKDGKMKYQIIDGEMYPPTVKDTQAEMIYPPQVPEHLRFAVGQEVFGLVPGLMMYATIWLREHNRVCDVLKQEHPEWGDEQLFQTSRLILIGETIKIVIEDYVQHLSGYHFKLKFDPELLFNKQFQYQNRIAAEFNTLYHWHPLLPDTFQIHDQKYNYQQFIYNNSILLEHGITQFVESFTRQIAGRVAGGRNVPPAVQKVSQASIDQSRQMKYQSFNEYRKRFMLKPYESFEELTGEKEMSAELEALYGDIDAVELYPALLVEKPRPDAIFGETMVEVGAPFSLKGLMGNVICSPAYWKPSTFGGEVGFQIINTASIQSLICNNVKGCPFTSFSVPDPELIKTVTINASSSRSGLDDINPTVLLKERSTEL
Description: as §1, §2, §3, §4

ERBB4 = ERBB4 (Homo sapiens, UniProt Q15303); experiment: biochemical; assay type: binding; conditions: 10000 nM; read-out: Percent Control

O=C(O)C1CCC2(CC1)CC(Nc1ncnc3[nH]c4c(F)cccc4c13)C2 (stereo not shown) [Compound 74, OC(=O)C1CCC2(CC(C2)NC=3N=CN=C4NC=5C(F)=CC=CC5C34)CC1]
remaining activity at 10 µM (JNK3): 40% | remaining activity at 10 µM (JNK2): 41% | remaining activity at 10 µM (ADCK3): 85% | remaining activity at 10 µM (ROCK2): 59% | remaining activity at 10 µM (JNK1): 35% | remaining activity at 10 µM (PIM1): 72% | remaining activity at 10 µM [1]: 57% | remaining activity at 10 µM (IKK-alpha): 42% | remaining activity at 10 µM (ZAP70): 75% | remaining activity at 10 µM (EGFR): 96% | remaining activity at 10 µM (DCAMKL1): 78% | remaining activity at 10 µM (PRKCE): 57% | remaining activity at 10 µM (FAK): 97% | remaining activity at 10 µM (TRKA): 11% | remaining activity at 10 µM (p38-alpha): 87% | remaining activity at 10 µM (INSR): 90% | remaining activity at 10 µM (CDK2): 96% | remaining activity at 10 µM (EGFR(L858R)): 84% | remaining activity at 10 µM (CDK11): 46% | remaining activity at 10 µM (GSK3B): 82% | remaining activity at 10 µM (MET): 100% | remaining activity at 10 µM (PIK3CA): 64% | remaining activity at 10 µM (CDK7): 62% | remaining activity at 10 µM (AKT1): 100% | remaining activity at 10 µM (ERK1): 100% | remaining activity at 10 µM (FGFR2): 71% | remaining activity at 10 µM (YANK3): 62% | remaining activity at 10 µM (SRC): 88% | remaining activity at 10 µM (BTK): 67% | remaining activity at 10 µM (PDPK1): 64% | remaining activity at 10 µM (DYRK1B): 74% | remaining activity at 10 µM (BRAF): 86% | remaining activity at 10 µM (AKT2): 74% | remaining activity at 10 µM (PIK3CG): 3.5% | remaining activity at 10 µM (SRPK3): 67% | remaining activity at 10 µM (CHEK1): 100% | remaining activity at 10 µM (ACVR1B): 55% | inhibitory / off-target activity at COX-2 (COX-2; 3 µM): no off-target activity; also recorded: no inhibitory activity | %Inhibition of Control Values (COX-2; COX-2, 3 µM, technical replicates): -20.9% and -2.6% | remaining activity at 10 µM (ERBB4): 99%
